In brackets after ≈: the same amount, converted by molar mass. Several values for one entry are separate records, joined by “and”; a condition that tells them apart may be missing. Identical values can stand only once. Like-named read-outs stand apart in the source and are kept apart here.
What was measured:
[1] = Solutions in permeation enhanced vehicle formulation F3; format: physicochemical; details: F3: 33.3% DMSO and 66.6% ethanol; dissolved in neat ethanol, then DMSO added
Experimental: A permeation enhanced vehicle formulation F3 was developed consisting of 33.3% dimethylsulfoxide (DMSO) and 66.6% ethanol. A solution of Pro-APAP in F3 was prepared by first dissolving 30.5 mg of Pro-APAP into 2 mL neat ethanol, and then slowly adding 1 mL DMSO to reach a 3 mL 10.1 mg/mL solution with a final DMSO concentration of 33.3%.
A solution of Pro-IBU in F3 was prepared by first dissolving 67.0 mg of Pro-IBU into 1 mL neat ethanol, and then slowly adding 0.50 mL DMSO to reach 1.5 mL of a 44.6 mg/mL solution with a final DMSO concentration of 33.3%.

physchem = details: for solubility: organic solvent or mixture, thermodynamic from solid, solubility in F1
Experimental: This example illustrates the solubilities of APAP, IBU, Pro-APAP, and Pro-IBU in vehicle formulations F1 and F2.
Formulation F1 consisted of 50% Polyethylene Glycol (MW grade: 400) in 50% Ethanol. 50.2 mg of IBU was dissolved in 10.0 mL of F1, to produce a solution with a concentration of 5.02 mg/mL.

[2] = Skin permeation across excised human skin (Franz cell), UV-Vis of receptor media; format: in vitro ADME
Experimental: Skin Permeation Studies: Upon completion of the solubility and stability studies, the ability of the compound to permeate the skin in the selected solvent/vehicle was tested and the rate of permeation was measured to determine whether the compound permeated to an extent relevant for clinical use in a transdermal patch. Specifically, 4-acetoxyacetanilide was assessed for skin permeation across human skin over a 24 h time period.
Methods: For the skin permeation studies, a sample chamber containing 5 mL of 50% Polyethylene glycol 400 in ethanol was used as the receptor media. An initial sample of receptor media was drawn at the onset of testing to test for interferents and subsequent samples of 1 mL each were taken at the following time-points: 0.5 h, 1 h, 2 h, 5 h, 8 h, and 24 h. These samples were analyzed via UV-Vis spectroscopy (Tecan m200 Infinity Multi-Well Plate Reader) for absorbance at 246 nm and were blanked relative to that of the empty vehicle.
Materials: 4-acetoxyacetanilide (Pro-APAP), Formulation Solvent: 50% DMSO in Polyethylene Glycol 400, and Receptor Media: 50% Ethanol in Polyethylene Glycol 400 at 37° C.
Skin permeation studies: Upon completion of the solubility and stability studies, the ability of the pro-IBU compound to permeate the skin in the selected solvent/vehicle was tested and the rate of permeation was measured to determine whether the compound will permeate to an extent relevant for clinical use in a transdermal patch. Specifically, ethyl 2-(4-isobutylphenyl)-propanoate was assessed for skin permeation across human skin over a 24 h time period.
Materials: ethyl 2-(4-isobutylphenyl)-propanoate (pro-IBU), Formulation Solvent: 50% DMSO in Polyethylene Glycol 400, Receptor Media: 50% Ethanol in Polyethylene Glycol 400 at 37° C.

[3] = cited from earlier work
[4] = Stability of prodrugs in vehicle F3, monitored visually; format: physicochemical
Experimental: This example evaluated the stability of each of the prodrugs in vehicle F3.
A 50 mg/ml solution of Pro-APAP in F3 was prepared and monitored visually for three months to check for stability. […] was determined to be stable in this solution for the duration of the experiment.
A 70 mg/ml solution of Pro-IBU in F3 was prepared and monitored visually for three months to check for stability. […] was determined to be stable in this solution for the duration of the experiment.

[5] = 5 Hr, cumulative mass into receptor media, excised human skin, Franz cell 0.64 cm^2, 37° C.
[6] = 8 Hr, cumulative mass into receptor media, excised human skin, Franz cell 0.64 cm^2, 37° C.
[7] = 24 Hr, cumulative mass into receptor media, excised human skin, Franz cell 0.64 cm^2, 37° C.
[8] = 24 h, excised human skin, Franz cell, 37° C., 50% DMSO in PEG 400

Q: Which “concentration of solution prepared in F3” value [1] does the source give for CCOC(=O)C(C)c1ccc(CC(C)C)cc1 (stereo not drawn) [Pro-IBU, ethyl 2-(4-isobutylphenyl)-propanoate] here?
A: 44600 µg/mL

Q: What about the solubility (physchem) of the same compound?
A: ≥ 24.9 mg/mL

Q: And the “permeability (permeation) coefficient range” value [2]?
A: 33.32-65.47 μg/h/cm^2

Q: What about the lag time ([2]; human) of the same compound?
A: 2 to 5 h

Q: What about the “Average Mass Released” value ([2]; human, 5 h) of the same compound?
A: 18.06 µg

Q: What about the “Maximum (mass released)” value ([2]; human, 5 h) of the same compound?
A: 54.17 µg

Q: What about the “Minimum (mass released)” value ([2]; human, 5 h) of the same compound?
A: 0.00 µg

Q: What about the “mass detected in one of the wells” value ([2]; human, 5 h) of the same compound?
A: 54 µg

Q: And the “Average Mass Released” value ([2]; human, 8 h)?
A: 25.50 µg

Q: And the “Maximum (mass released)” value ([2]; human, 8 h)?
A: 70.83 µg

Q: What about the “Minimum (mass released)” value ([2]; human, 8 h) of the same compound?
A: 0.00 µg

Q: And the “concentration of Pro-IBU in the receptor media” value ([2]; human, 24 h)?
A: ~200 µg/mL

Q: And the solubility ([3]; in DMSO and ethanol)?
A: soluble

Q: With CC(=O)Nc1ccc(O)cc1 [APAP, acetaminophen, reference compound] as the compound, how does the solubility (physchem) read?
A: 12.8 mg/mL (≈ 84.7 mM)

Q: For CC(=O)Nc1ccc(OC(C)=O)cc1 [Pro-APAP, 4-acetoxyacetanilide], which “stability in solution in F3” value ([4]; 50 mg/ml solution in F3, monitored visually for three months) is on record?
A: stable

Q: What about the “stability in solution in F3” value ([4]; 70 mg/ml solution of Pro-IBU in F3, monitored visually for three months) of the same compound?
A: stable

Q: And the “concentration of solution prepared in F3” value [1]?
A: 10100 µg/mL

Q: And the “solubility in F1” value (physchem)?
A: 12.5 mg/mL (≈ 64.7 mM)

Q: What about the “Maximum (mass released)” value [2, 5] of the same compound?
A: 10.8 µg and 10.88 µg

Q: What about the “Minimum (mass released)” value [2, 5] of the same compound?
A: 4.73 µg

Q: And the “Average Mass Released” value ([2]; 5 Hr, cumulative mass into receptor media, excised human skin, Franz cell 0.64 cm^2, 37° C., 50% DMSO in PEG 400)?
A: 7.15 µg and 7.16 µg

Q: What about the “Maximum (mass released)” value [2, 6] of the same compound?
A: 15.34 µg

Q: What about the “Minimum (mass released)” value [2, 6] of the same compound?
A: 10.04 µg

Q: And the “Average Mass Released” value ([2]; 8 Hr, cumulative mass into receptor media, excised human skin, Franz cell 0.64 cm^2, 37° C., 50% DMSO in PEG 400)?
A: 12.20 µg

Q: What about the “Maximum (mass released)” value [2, 7] of the same compound?
A: 91.94 µg and 91.95 µg

Q: What about the “Minimum (mass released)” value [2, 7] of the same compound?
A: 55.45 µg

Q: What about the “Average Mass Released” value ([2]; 24 Hr, cumulative mass into receptor media, excised human skin, Franz cell 0.64 cm^2, 37° C., 50% DMSO in PEG 400) of the same compound?
A: 76.15 µg and 76.16 µg

Q: And the “concentration of Pro-APAP in receptor media, maximum” value [2, 8]?
A: 15.78 µg/mL

Q: And the “concentration of Pro-APAP in receptor media, minimum” value [2, 8]?
A: 8.76 µg/mL

Q: What about the “concentration of Pro-APAP in receptor media, average” value ([2]; 24 h, excised human skin, Franz cell, 37° C., formulation solvent 50% DMSO in PEG 400, receptor 50% ethanol in PEG 400, blank subtracted) of the same compound?
A: 12.36 µg/mL

Q: What about the “permeability (permeation) coefficient range” value ([2]; calculated, human skin, 24 h study, 50% DMSO in PEG 400) of the same compound?
A: 3.61-5.98 μg/h/cm^2

Q: What about the “total cumulative amount permeated” value ([2]; human skin over 24 h, 50% DMSO in PEG 400) of the same compound?
A: around 80 μg per 0.66 cm^2

Q: What about the solubility ([3]; in chloroform, DMSO, and methanol) of the same compound?
A: slightly soluble
